# According to ChEMBL document CHEMBL3585293, “Design, antiviral and cytostatic properties of isoxazolidine-containing amonafide analogues” (Bioorg Med Chem, 2015):
# System: Vaccinia virus
# Test: Antiviral activity against Vaccinia virus infected in HEL cells assessed as reduction of virus-induced cytopathogenicity
# Format: functional, organism-based
# Details: Orthopoxvirus vaccinia
row,Compound,EC50 [µM]
1,CCOP(=O)(OCC)[C@@H]1C[C@H](C(=O)Nc2cc3c4c(cccc4c2)C(=O)N(CCN2CCCC2)C3=O)ON1C (racemic),50
2,Nc1ccn(C[C@@H](CO)OCP(=O)(O)O)c(=O)n1 [CIDOFOVIR],22
3,CCOP(=O)(OCC)[C@@H]1C[C@@H](C(=O)Nc2cc3c4c(cccc4c2)C(=O)N(CCN(C)C)C3=O)ON1C (racemic),> 45
4,CCOP(=O)(OCC)[C@@H]1C[C@H](C(=O)Nc2cc3c4c(cccc4c2)C(=O)N(CCN(C)C)C3=O)ON1C (racemic),> 45
5,Nc1nc2c(ncn2COCCO)c(=O)[nH]1 [ACYCLOVIR],> 250
6,CCOP(=O)(OCC)[C@@H]1C[C@@H](C(=O)Nc2cc3c4c(cccc4c2)C(=O)N(CCN2CCCC2)C3=O)ON1C (relative stereo),> 45
7,O=c1[nH]c(=O)n([C@H]2C[C@H](O)[C@@H](CO)O2)cc1/C=C/Br [BRIVUDINE],17
8,Nc1nc2c(ncn2COC(CO)CO)c(=O)[nH]1 [GANCICLOVIR],> 100
